# Experimental data reported in ChEMBL document CHEMBL1201862, “PubChem BioAssay data set” (2004).
# Calls of active or inactive are those of the source.
# Legend:
# [1] = molecular target: 1-phosphatidylinositol 4,5-bisphosphate phosphodiesterase beta-3 (Homo sapiens, UniProt Q01970); experiment: Fluorescence-based biochemical high throughput dose response assay to identify inhibitors of phospholipase C isozymes (PLC-B3).
# [2] = molecular target: 1-phosphatidylinositol 4,5-bisphosphate phosphodiesterase gamma-1 (Homo sapiens, UniProt P19174); experiment: Counterscreen for inhibitors of phospholipase C isozymes (PLC-B3): Fluorescence-based biochemical high throughput dose response assay to identify inhibitors of phospholipase C isozymes (PLC-gamma1).
# 1-phosphatidylinositol 4,5-bisphosphate phosphodiesterase gamma-1, sequence (P19174 whole entry): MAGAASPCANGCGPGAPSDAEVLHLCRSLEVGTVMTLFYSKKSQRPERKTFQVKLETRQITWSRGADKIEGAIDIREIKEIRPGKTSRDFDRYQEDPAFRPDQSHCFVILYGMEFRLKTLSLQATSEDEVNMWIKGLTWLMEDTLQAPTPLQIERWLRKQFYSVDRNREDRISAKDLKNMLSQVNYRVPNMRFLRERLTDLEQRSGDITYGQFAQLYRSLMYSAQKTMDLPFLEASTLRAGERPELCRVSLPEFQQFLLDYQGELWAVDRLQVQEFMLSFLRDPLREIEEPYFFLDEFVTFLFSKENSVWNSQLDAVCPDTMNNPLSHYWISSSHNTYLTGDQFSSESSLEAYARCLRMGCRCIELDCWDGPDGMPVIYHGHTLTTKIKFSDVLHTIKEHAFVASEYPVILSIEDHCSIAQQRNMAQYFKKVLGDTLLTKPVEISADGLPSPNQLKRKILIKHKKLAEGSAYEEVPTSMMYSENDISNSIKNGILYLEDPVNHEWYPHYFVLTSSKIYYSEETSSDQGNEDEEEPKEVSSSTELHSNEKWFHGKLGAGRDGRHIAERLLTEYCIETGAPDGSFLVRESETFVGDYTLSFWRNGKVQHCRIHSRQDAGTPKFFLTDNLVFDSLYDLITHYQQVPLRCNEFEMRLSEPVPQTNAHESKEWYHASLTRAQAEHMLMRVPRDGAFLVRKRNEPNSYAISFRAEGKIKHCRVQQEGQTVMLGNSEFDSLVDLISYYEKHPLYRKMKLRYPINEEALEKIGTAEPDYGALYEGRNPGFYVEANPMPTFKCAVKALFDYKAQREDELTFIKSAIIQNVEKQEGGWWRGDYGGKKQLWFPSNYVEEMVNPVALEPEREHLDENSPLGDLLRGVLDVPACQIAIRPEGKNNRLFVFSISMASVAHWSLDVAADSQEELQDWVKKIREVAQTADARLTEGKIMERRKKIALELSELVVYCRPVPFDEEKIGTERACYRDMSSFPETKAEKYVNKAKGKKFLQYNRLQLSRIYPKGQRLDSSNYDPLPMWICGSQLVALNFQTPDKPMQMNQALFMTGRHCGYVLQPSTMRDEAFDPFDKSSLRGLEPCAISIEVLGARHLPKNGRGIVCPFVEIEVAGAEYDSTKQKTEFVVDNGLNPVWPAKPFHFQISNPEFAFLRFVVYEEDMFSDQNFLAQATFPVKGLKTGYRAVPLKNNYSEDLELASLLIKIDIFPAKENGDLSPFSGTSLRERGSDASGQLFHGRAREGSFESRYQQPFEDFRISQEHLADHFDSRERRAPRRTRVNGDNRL
# [3] = Dd2 malaria parasite growth inhibition potency – SYBR Green, dry powder samples, dose response (AID 1159566); type: functional, cell-based;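 note: potency for growth inhibition with lower SYBR green DNA signal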
# [4] = Dd2 parasite growth inhibition in erythrocytes – SYBR Green, dry powder samples, set 9, dose response (AID 1159568); type: functional, cell-based
# [5] = growth inhibition of yeast DHODH-expressing 3D7 parasites – SYBR Green, dry powder samples, dose response (AID 1159570); type: functional, cell-based;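 note: parasite growth measured after 72 hours of compound exposure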
# [6] = P. falciparum Dd2 growth inhibitors, dose response, SYBR Green, cherry-picked samples (AID 1159567); type: functional, cell-based
# [7] = growth inhibition of PfATP4-mutant resistant parasites – NITD609-resistant line, SYBR Green, dry powder, dose response (AID 1159571); type: functional, cell-based;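 note: parasites synchronized at ring stage by sorbitol before testing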
# [8] = toxicity to human HepG2 hepatoma cells – cell-based, plate reader, dry powder samples, cytotoxicity control, dose response (AID 1159569); type: functional;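 note: inhibitor potency with signal falling toward the positive control level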
# [9] = IC50 of insulin release inhibition, rat insulinoma INS-1E line, 5 mM glucose, cell-based (AID 1117331); type: functional
# [10] = Potency on glucagon-like peptide 1 release, dose-response in NCI-H716 cell line, half maximal inhibitory concentration (AID 1117344); type: functional, cell-based
# [11] = glucagon-like peptide-1 release potency in STC-1, concentration-response, half-maximal inhibitory concentration in the STC-1 line (AID 1117345); type: functional, cell-based
# [12] = molecular target: G-protein coupled receptor 183 (Homo sapiens, UniProt P32249); experiment: SAR confirmation of small molecule antagonists of the EBI2 receptor via a luminescent beta-arrestin assa.; type: functional
# G-protein coupled receptor 183, sequence (P32249 whole entry): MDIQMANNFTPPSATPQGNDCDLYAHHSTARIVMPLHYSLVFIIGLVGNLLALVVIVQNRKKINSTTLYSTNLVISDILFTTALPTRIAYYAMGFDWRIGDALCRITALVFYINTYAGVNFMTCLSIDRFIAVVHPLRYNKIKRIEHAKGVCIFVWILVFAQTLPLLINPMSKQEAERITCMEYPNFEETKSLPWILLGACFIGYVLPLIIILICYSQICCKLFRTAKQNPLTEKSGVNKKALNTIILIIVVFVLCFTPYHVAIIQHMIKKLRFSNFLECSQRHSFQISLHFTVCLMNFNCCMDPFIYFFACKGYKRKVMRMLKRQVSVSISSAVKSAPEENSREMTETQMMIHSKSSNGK
# [13] = cytotoxicity toward HCT116 cells – cell-based, CellTiter-Glo luminescence, IC50, dose response (AID 1117332); type: functional; details: HCT-116
# [14] = RKO cell viability reduction, dose response, CellTiter-Glo luminescence (AID 1117322); type: functional
# [15] = Reduced DLD-1 viability, concentration-response, CellTiter-Glo luminescence (AID 1117352); type: functional
# [16] = cytotoxicity toward HT-29 cells – cell-based, CellTiter-Glo luminescence, IC50, dose response (AID 1117330); type: functional
# [17] = HCT116 cell viability decrease, GSK3B pretreatment – CellTiter-Glo, IC50, dose response (AID 1117339); type: functional; details: HCT-116
# [18] = CellTiter-Glo luminescence survival assay, SW480 colon tumor line, concentration-response curve, half-maximal inhibitory concentration (AID 1117338); type: functional
# [19] = SNU-C1 cell viability reduction, dose response, CellTiter-Glo luminescence (AID 1117323); type: functional, cell-based
# [20] = cytotoxicity toward Colo320 cells – cell-based, CellTiter-Glo luminescence, IC50, dose response (AID 1117334); type: functional; details: COLO 320
# [21] = molecular target: Neurotensin receptor type 1 (Homo sapiens, UniProt P30989); type: functional;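 note: Image-based confirmatory dose-response assay measuring agonist activity at NTR1; NTR1-expressing U2OS osteosarcoma cells imaged for beta-arrestin GFP spot formation; agonist potency where compounds increase beta-arrestin recruitment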
# Neurotensin receptor type 1, sequence (P30989 whole entry, the tested form may be a part): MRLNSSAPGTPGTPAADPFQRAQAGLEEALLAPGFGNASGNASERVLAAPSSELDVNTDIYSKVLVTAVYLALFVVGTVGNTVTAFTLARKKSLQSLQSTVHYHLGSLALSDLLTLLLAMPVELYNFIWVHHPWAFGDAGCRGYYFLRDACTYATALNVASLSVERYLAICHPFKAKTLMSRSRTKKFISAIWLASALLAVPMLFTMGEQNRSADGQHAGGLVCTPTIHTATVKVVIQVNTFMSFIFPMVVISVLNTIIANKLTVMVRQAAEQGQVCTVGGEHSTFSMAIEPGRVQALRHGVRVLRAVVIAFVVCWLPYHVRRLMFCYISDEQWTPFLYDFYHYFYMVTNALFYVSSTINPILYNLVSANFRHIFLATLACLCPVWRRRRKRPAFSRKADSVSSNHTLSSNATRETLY
# [22] = molecular target: Disintegrin and metalloproteinase domain-containing protein 17 (Homo sapiens, UniProt P78536); experiment: inhibition of ADAM17 substrate cleavage – biochemical, quenched FRET substrate, counter-screen for ADAM10 exosite inhibitor project, dose response (AID 743253)
# Disintegrin and metalloproteinase domain-containing protein 17, sequence (P78536 whole entry, the tested form may be a part): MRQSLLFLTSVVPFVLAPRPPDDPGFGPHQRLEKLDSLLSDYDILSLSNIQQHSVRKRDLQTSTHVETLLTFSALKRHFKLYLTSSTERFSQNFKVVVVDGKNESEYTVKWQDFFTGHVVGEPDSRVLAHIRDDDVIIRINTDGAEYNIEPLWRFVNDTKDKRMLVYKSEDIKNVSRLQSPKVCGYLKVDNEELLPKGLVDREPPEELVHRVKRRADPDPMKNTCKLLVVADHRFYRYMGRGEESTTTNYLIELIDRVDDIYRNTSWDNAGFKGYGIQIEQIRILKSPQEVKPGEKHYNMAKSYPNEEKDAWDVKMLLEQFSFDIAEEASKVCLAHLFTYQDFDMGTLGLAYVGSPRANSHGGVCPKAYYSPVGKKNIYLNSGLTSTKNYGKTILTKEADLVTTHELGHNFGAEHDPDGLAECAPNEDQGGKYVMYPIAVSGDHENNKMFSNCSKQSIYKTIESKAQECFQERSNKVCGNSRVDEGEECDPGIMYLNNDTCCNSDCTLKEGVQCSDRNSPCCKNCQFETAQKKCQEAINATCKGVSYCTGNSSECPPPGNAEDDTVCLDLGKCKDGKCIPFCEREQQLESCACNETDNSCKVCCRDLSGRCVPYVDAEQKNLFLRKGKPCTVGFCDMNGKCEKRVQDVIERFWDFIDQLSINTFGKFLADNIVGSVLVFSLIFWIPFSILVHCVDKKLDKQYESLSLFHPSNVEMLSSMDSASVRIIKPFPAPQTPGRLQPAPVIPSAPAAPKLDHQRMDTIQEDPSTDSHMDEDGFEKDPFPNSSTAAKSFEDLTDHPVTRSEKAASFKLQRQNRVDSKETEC
# [23] = IGROV1 cell killing – plate reader, dry powder samples, PAX8 inhibitor project, dose response (AID 743043); type: functional, cell-based; details: IGROV-1
# [24] = inhibitors acting on PAX2 in cells – cell-based, plate reader, dry powder samples, selectivity assay for PAX8 inhibitor project, dose response (AID 743048); type: functional;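 note: HEK293 cells carrying a WT1 promoter luciferase reporter driven by expressed Pax2; potency is for inhibition of Pax2 driven reporter signal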
# [25] = molecular target: Paired box protein Pax-8 (Homo sapiens, UniProt Q06710); experiment: PAX8 transcriptional activity inhibition in RMG-I – RMG-I cells, luciferase, cherry-pick, dose response (AID 687027); type: functional, cell-based;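 note: luciferase reporter driven by Pax8 target thyroperoxidase promoter measured by SteadyGlo luminescence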
# Paired box protein Pax-8, sequence (Q06710 whole entry): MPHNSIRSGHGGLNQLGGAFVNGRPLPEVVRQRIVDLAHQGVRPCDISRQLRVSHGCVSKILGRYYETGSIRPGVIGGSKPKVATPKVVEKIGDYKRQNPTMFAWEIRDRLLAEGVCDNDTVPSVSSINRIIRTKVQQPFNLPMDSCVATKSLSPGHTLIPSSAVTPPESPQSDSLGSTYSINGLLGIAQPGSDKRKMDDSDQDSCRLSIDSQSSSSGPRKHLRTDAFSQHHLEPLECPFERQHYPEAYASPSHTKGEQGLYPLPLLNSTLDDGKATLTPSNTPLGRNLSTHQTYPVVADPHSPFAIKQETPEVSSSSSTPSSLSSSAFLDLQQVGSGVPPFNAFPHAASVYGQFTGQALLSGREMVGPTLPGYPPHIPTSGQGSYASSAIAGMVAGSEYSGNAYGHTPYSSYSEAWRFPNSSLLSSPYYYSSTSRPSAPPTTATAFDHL
# [26] = PAX8-dependent cell viability loss – plate reader, dry powder, dose response (AID 743049); type: functional, cell-based
# [27] = PAX5 cellular inhibition readout – cell-based, plate reader, dry powder samples, selectivity assay for PAX8 inhibitor project, dose response (AID 743047); type: functional;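 note: HEK293 cells carrying a Pax5 driven CD19 promoter luciferase reporter; potency of inhibitors that lower reporter luminescence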
# [28] = COV434 cell viability loss – plate reader, dry powder, SA7, cytotoxicity control for PAX8 inhibitor project, dose response (AID 743145); type: functional, cell-based
# [29] = OVCAR-3 cell viability loss – plate reader, dry powder samples, PAX8 inhibitor project, dose response (AID 743044); type: functional, cell-based
# [30] = OVCAR4 cell viability loss – plate reader, dry powder, SA11, cytotoxicity control for PAX8 inhibitor project, dose response (AID 743150); type: functional, cell-based; details: OVCAR-4
# [31] = COV362 cell viability loss – plate reader, dry powder, SA12, cytotoxicity control for PAX8 inhibitor project, dose response (AID 743144); type: functional, cell-based
# [32] = OV-90 cell viability loss – plate reader, dry powder, SA8, PAX8 inhibitor project, dose response (AID 743149); type: functional, cell-based
# [33] = viability loss in HepG2 hepatoma cells – cell-based, ATP luminescence, cherry-pick, activator set 2, cytotoxicity control, dose response (AID 1053143); type: functional
# [34] = molecular target: T1, Oxysterols receptor LXR-beta (Homo sapiens, UniProt P55055); type: functional, cell-based;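 note: agonist activity at LXR measured by a cell-based luminescence readout across a dose range, run as a counterscreen for daf-12 agonists; HEK293 cells with Gal4-LXR fusion and GAL4-driven luciferase reporter; potency for activation of Gal4-LXR reporter so compounds are agonists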
# T1 sequence (P55055 whole entry): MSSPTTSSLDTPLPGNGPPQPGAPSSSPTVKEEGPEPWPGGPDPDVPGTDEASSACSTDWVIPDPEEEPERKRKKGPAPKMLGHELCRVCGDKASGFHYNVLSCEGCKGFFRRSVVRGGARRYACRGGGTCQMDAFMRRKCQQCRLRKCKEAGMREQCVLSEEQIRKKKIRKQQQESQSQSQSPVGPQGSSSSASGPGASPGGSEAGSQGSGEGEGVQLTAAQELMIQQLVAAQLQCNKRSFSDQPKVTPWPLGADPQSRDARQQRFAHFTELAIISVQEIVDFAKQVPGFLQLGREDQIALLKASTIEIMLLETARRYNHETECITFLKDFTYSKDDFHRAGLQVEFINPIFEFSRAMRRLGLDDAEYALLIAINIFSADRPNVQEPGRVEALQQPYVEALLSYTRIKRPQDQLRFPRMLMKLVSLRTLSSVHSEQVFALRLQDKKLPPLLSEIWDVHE
# [35] = molecular target: T2, Streptokinase A (Streptococcus pyogenes serotype M1, UniProt P10520); experiment: viability-normalized secreted streptokinase activity reduction – plasminogen activation absorbance, OD405, dose response (AID 1914); type: functional, Streptococcus pyogenes M1 GAS;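 note: secreted streptokinase activity via plasminogen activation per viability signal from cell pellet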
# T2 sequence (P10520 whole entry): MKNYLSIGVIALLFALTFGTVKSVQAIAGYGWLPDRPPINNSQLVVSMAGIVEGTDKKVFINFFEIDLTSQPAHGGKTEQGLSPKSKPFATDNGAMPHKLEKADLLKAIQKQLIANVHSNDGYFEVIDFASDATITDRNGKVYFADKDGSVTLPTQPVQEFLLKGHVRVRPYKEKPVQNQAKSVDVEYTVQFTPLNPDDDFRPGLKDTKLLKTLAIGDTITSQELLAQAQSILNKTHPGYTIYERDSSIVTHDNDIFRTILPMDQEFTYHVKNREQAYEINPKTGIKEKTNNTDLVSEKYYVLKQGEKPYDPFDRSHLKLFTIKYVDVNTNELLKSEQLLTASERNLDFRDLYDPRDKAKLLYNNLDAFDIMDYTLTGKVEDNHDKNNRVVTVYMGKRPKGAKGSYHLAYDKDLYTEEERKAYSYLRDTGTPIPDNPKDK
# [36] = reduction of Shn3 3'UTR-driven luciferase in osteoblasts – cell-based, Clone20 osteoblasts, firefly luciferase, cherry-picked, dose response (AID 624132); type: functional;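 note: firefly luciferase luminescence from reporter carrying the Shn3 3'UTR in osteoblasts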
# [37] = Shn3 3'UTR reporter signal decrease – cell-based, Clone20 osteoblasts, firefly luciferase, cherry-pick, set 2, Schnurri-3 inhibitor project, dose response (AID 720490); type: functional;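 note: actives lower the luminescence signal as inhibitors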
# [38] = Luminescence Cell-Based Dose Retest to Confirm Inhibitors of Cancer Stem Cells. [Related pubchem assays (depositor defined):AID2717, AID2721]; type: functional; details: Homo sapiens
# [39] = loss of viability in HepG2 cells – cell-based, CellTiter-Glo, cherry-picked, cytotoxicity control for Shn3 inhibitor project, dose response (AID 624134); type: functional
# [40] = system: Streptococcus; experiment: GAS UMAA2166 growth inhibition – luminescence, BacTiterGlo, counter-screen for streptokinase expression inhibitor project, dose response (AID 1915); type: functional, organism-based;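 note: potency for reduction of bacterial viability or growth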
# [41] = system: Streptococcus sp. 'group A'; experiment: Streptococcus pyogenes SK(-)GAS viability under kanamycin – luminescence, BacTiterGlo, confirmation, counter-screen for streptokinase expression inhibitor project, dose response (AID 1900); type: functional, organism-based
# [42] = potency of ADAM10 substrate cleavage blockers – biochemical, QFRET, dose response (AID 743254);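 note: ADAM10 enzyme with the DM2 quenched FRET peptide as substrate; EDANS fluorescence gain as the protease cuts the substrate; inhibitor potency against ADAM10 proteolytic activity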
# 1-phosphatidylinositol 4,5-bisphosphate phosphodiesterase beta-3, sequence (Q01970 whole entry): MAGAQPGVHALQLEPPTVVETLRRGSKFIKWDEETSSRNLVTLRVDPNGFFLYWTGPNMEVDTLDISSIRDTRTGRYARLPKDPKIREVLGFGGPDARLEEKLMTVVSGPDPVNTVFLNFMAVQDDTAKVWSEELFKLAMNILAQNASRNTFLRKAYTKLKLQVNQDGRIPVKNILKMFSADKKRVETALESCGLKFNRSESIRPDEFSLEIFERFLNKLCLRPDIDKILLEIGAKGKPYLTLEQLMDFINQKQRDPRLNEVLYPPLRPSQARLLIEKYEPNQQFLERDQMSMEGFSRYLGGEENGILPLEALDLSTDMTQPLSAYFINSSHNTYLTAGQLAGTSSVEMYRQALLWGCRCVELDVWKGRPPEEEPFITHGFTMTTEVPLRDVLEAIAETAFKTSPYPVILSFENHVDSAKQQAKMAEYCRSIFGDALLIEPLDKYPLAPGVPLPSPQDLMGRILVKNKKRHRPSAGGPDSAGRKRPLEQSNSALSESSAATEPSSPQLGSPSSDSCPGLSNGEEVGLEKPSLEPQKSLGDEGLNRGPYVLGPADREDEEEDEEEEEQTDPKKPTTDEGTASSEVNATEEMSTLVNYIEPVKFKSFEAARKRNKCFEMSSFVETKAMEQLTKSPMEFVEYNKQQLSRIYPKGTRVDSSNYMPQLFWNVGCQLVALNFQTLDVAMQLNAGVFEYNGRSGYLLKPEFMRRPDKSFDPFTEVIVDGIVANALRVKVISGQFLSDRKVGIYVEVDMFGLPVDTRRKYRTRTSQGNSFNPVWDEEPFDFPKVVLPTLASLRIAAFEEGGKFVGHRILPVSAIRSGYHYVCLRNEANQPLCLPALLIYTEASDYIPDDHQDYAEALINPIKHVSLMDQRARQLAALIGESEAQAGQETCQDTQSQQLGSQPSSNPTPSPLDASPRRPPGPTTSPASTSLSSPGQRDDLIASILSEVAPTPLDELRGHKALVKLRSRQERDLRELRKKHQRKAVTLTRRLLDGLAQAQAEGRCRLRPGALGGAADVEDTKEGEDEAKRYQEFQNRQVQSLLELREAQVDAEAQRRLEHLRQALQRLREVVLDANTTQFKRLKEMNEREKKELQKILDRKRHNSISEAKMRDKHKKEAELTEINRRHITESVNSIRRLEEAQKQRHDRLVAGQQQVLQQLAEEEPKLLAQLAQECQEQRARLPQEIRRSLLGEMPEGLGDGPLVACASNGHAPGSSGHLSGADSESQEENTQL
smiles,measurement,setting,value
CC[C@H]1C=C[C@@H](C(=O)NS(=O)(=O)c2ccc(C)cc2)N(C(C)=O)C1,IC50,[1],> 122 µM (inactive)
same,IC50,[2],> 122 µM (inactive)
CCCNC(=O)N1[C@H](C#N)[C@H](c2ccc(C3=CCCCC3)cc2)[C@@H]1CO,AC50,[3],0.0228 µM (active)
same,AC50,[4],0.355 µM (active)
same,AC50,[5],3.39 µM (active)
same,AC50,[6],< 0.3 µM (active)
same,AC50,[7],0.0853 µM (active)
same,AC50,[8],0.601 µM (active)
CC(C)CCCC(C)NCCC(C)C (stereo not drawn) [OCTAMYLAMINE],IC50,[9],> 33.3 µM (inactive)
same,IC50,[10],> 40 µM (inactive)
same,IC50,[11],> 40 µM (inactive)
O=C(/C=C/c1ccc(F)cc1)N1CCN(S(=O)(=O)c2ccccc2)CC1,IC50,[12],0.0125 µM (active)
CCCCCCCCCCCCCCCC(=O)OCC=C(C)C=CC=C(C)C=CC1=C(C)CCCC1(C)C,IC50,[13],> 20 µM (inactive)
same,IC50,[14],> 20 µM (inactive)
same,IC50,[15],> 20 µM (inactive)
same,IC50,[16],> 20 µM (inactive)
same,IC50,[17],> 20 µM (inactive)
same,IC50,[18],> 20 µM (inactive)
same,IC50,[19],> 20 µM (inactive)
same,IC50,[20],> 20 µM (inactive)
Cc1ccc(C(=O)Nc2nnc(NC(=S)Nc3ccccc3)s2)cc1,EC50,[21],7.59 µM (active)
same,IC50,[22],> 69.5 µM (inactive)
Cn1c(CCN2CCCC2)nc2cc(NS(=O)(=O)c3ccc(Cl)cc3)ccc21,AC50,[23],26.9 µM (active)
same,AC50,[24],72.5 µM (active)
same,AC50,[25],6.57 µM (active)
same,AC50,[26],12.8 µM (active)
same,AC50,[27],52.5 µM (active)
same,AC50,[28],46.1 µM (active)
same,AC50,[29],18.9 µM (active)
same,AC50,[30],16.8 µM (active)
same,AC50,[31],20.2 µM (active)
same,AC50,[32],> 100 µM (inactive)
C[C@@H]1CN([C@@H](C)CO)C(=O)c2cc(C#Cc3ccccc3)cnc2O[C@H]1CN(C)C(=O)c1ccccc1,AC50,[4],4.99 µM (active)
COc1cccc(-c2nc(-c3ccc(Br)o3)no2)c1,AC50,[33],> 52 µM (inactive)
same,EC50,[34],> 67.5 µM (inactive)
CC(=C(CCOC(=O)C(C)C)SSC(CCOC(=O)C(C)C)=C(C)N(C=O)Cc1cnc(C)nc1N)N(C=O)Cc1cnc(C)nc1N [SULBUTIAMINE],IC50,[9],> 33.3 µM (inactive)
same,IC50,[10],2.39 µM (active)
same,IC50,[11],> 40 µM (inactive)
CCc1cnc(N2[C@@H](C#N)[C@@H](c3ccc(C#CC(C)C)cc3)[C@@H]2CO)s1,AC50,[24],24.7 µM (active)
same,AC50,[25],15.4 µM (active)
same,AC50,[26],35.3 µM (active)
same,AC50,[27],29.4 µM (active)
same,AC50,[30],23.6 µM (active)
same,AC50,[31],> 70 µM (inactive)
same,AC50,[32],39.6 µM (active)
Cc1cccc(NS(=O)(=O)c2ccc(C3CCCCC3)cc2)c1,EC50,[35],5.02 µM (active)
same,AC50,[36],5.13 µM (active)
same,AC50,[37],4.66 µM (active)
same,AC50,[38],5.27 µM (active)
same,AC50,[39],> 70 µM (inactive)
same,EC50,[40],6.98 µM (active)
same,EC50,[41],6.43 µM (active)
CSc1cccc(NC(=O)CCCOc2ccc(Cl)cc2C)c1,IC50,[42],65.6 µM (inactive)
same,IC50,[22],> 69.5 µM (inactive)
CCOC(=O)c1cnc(SCCc2ccccc2)nc1N,EC50,[34],> 67.5 µM (inactive)
Cc1cc(C(=O)NNC(=S)NCC(C)C)cs1,IC50,[1],> 122 µM (inactive)
same,IC50,[2],> 122 µM (inactive)
O=C(/C=C/c1ccc(Br)cc1)N1CCN(S(=O)(=O)c2ccc(Br)cc2)CC1,IC50,[12],0.00166 µM (active)
